Data on two compounds can be found in paper PMC9030254, “Target Hopping from Protein Kinases to PXR: Identification of Small-Molecule Protein Kinase Inhibitors as Selective Modulators of Pregnane X Receptor from TüKIC Library” (Cells, 2022).

Each structure is given as a SMILES string.

Experiment in all cases: Kinase profiling
What all share (format): biochemical

In test [1] the target is T1, S6K (Homo sapiens, UniProt P23443).
T1 construct: purchased ProQinase (Freiburg, Germany)
How it is done:
(§1) The analysis was performed by ProQinase (Freiburg, Germany).

The target of test [2] is T2, ABL2 (Homo sapiens, UniProt P42684).
T2 construct: purchased ProQinase (Freiburg, Germany)
T2 sequence (P42684 whole entry): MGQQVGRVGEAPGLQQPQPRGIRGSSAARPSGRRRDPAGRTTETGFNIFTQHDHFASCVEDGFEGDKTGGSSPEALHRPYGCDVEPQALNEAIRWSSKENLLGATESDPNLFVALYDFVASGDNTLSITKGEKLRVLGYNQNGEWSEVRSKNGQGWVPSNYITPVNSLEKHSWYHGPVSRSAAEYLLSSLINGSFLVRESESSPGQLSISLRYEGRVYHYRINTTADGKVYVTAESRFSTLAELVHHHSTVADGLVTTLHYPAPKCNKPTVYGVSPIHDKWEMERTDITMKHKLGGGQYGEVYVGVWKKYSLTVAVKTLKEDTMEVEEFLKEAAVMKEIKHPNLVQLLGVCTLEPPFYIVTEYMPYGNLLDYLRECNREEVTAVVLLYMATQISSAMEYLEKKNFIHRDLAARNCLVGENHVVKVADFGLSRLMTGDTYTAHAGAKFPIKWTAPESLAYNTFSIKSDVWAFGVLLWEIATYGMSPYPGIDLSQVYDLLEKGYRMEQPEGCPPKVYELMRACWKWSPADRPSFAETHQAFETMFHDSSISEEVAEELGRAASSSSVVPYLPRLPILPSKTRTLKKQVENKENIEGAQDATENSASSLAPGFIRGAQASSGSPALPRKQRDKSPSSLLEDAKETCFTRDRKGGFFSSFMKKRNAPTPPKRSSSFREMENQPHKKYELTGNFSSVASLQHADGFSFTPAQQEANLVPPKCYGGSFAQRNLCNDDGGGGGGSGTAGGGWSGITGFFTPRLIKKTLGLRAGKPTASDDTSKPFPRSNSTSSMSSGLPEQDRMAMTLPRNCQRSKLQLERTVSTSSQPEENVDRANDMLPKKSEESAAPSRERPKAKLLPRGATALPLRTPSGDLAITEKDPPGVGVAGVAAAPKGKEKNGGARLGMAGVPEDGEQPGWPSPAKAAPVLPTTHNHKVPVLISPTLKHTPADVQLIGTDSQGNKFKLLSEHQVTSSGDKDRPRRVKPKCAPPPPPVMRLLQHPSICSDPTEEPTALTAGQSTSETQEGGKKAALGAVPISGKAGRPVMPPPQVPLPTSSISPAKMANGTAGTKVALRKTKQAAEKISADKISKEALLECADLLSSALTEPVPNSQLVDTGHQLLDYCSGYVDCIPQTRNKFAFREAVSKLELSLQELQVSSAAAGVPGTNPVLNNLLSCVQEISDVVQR
How it is done:
as §1

Test [3] addresses T3, PAK4 (Homo sapiens, UniProt O96013).
T3 construct: purchased ProQinase (Freiburg, Germany)
How it is done:
as §1

In test [4] the target is T4, TRKB (Homo sapiens, UniProt Q16620).
T4 construct: purchased ProQinase (Freiburg, Germany)
T4 sequence (Q16620 32-822): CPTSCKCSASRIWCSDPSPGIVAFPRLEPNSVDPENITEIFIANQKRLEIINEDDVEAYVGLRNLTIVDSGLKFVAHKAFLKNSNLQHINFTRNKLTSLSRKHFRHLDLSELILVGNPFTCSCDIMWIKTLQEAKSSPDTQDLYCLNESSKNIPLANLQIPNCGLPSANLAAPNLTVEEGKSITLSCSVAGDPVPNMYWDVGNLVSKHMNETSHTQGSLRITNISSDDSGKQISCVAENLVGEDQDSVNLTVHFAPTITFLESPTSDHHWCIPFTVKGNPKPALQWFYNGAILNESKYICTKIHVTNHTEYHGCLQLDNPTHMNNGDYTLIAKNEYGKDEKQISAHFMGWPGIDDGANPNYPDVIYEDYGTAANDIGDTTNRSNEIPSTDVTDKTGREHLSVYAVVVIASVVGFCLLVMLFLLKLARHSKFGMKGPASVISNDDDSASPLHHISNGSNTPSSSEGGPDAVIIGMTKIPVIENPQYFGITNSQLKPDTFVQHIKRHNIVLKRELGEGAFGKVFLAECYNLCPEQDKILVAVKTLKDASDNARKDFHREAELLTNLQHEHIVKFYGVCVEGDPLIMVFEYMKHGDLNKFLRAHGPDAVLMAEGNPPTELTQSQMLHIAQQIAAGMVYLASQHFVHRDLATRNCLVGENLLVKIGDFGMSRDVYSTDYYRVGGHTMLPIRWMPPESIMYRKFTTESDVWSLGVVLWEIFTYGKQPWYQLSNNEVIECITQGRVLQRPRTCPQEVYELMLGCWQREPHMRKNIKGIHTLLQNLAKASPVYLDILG
The method, then: as §1

Test [5] addresses T5, MKK6 SDTD (Homo sapiens, UniProt P52564, S207D/T211D).
T5 construct: purchased ProQinase (Freiburg, Germany)
T5 sequence (P52564 1-334 S207D/T211D): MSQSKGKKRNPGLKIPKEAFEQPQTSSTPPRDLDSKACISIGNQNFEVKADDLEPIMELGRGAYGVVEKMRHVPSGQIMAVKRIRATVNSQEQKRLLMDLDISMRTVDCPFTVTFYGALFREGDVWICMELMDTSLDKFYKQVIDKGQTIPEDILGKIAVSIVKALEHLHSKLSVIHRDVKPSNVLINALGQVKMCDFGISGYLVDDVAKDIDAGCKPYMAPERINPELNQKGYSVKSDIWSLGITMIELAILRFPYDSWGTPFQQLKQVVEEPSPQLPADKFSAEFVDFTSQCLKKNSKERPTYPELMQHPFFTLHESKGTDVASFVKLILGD
The method, then:
as §1

Test [6] concerns the target T6, RPS6KA1 (Homo sapiens, UniProt Q15418).
T6 construct: purchased ProQinase (Freiburg, Germany)
How it is done:
as §1

Test [7] deals with T7, TAOK2 (Homo sapiens, UniProt Q9UL54).
T7 construct: purchased ProQinase (Freiburg, Germany)
T7 sequence (Q9UL54 1-1235): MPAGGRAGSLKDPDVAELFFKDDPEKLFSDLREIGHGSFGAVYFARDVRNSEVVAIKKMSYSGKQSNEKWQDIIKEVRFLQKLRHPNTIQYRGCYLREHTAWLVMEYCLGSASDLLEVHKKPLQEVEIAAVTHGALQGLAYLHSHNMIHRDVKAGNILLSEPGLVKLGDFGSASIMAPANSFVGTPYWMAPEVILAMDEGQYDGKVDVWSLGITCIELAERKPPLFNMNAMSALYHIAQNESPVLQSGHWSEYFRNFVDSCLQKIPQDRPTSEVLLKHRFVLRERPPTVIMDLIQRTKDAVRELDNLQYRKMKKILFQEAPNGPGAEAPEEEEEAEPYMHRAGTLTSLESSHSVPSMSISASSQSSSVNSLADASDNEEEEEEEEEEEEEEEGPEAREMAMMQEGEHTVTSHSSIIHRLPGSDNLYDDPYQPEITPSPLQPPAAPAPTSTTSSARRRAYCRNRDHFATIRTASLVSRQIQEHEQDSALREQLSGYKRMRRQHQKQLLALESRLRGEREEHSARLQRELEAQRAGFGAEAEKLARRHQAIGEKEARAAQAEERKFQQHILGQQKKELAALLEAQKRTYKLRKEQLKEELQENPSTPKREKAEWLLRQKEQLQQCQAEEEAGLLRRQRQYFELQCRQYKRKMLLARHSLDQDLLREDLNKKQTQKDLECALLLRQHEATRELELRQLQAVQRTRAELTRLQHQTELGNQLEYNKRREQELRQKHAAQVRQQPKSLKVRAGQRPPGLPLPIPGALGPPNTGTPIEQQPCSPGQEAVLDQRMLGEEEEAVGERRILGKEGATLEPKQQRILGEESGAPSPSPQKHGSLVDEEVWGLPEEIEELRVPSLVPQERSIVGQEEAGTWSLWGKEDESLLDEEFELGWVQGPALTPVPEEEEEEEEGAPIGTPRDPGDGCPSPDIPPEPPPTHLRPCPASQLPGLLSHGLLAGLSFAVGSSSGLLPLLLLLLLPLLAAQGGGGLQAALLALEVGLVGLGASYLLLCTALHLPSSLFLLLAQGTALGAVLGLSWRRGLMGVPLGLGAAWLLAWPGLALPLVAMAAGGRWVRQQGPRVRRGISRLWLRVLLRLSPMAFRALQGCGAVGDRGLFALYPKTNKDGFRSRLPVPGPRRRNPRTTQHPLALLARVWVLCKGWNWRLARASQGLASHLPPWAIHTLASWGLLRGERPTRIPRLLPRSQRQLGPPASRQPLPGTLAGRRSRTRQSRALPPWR
How it is done: as §1

Test [8] deals with T8, CAMK4 (Homo sapiens, UniProt Q16566).
T8 construct: purchased ProQinase (Freiburg, Germany)
T8 sequence (Q16566 1-473): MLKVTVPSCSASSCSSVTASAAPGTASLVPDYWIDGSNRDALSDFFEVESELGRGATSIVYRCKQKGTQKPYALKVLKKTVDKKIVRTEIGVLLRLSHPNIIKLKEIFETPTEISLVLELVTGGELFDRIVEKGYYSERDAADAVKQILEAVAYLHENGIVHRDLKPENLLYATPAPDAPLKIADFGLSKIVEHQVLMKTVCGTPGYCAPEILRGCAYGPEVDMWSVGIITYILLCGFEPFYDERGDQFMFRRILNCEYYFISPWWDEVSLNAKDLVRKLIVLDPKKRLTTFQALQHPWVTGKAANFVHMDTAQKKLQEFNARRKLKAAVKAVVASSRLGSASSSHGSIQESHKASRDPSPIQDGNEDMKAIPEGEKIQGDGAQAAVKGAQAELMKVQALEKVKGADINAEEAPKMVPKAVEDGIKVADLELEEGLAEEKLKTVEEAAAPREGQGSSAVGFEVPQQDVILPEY
How it is done: as §1

T1 sequence (P23443 whole entry): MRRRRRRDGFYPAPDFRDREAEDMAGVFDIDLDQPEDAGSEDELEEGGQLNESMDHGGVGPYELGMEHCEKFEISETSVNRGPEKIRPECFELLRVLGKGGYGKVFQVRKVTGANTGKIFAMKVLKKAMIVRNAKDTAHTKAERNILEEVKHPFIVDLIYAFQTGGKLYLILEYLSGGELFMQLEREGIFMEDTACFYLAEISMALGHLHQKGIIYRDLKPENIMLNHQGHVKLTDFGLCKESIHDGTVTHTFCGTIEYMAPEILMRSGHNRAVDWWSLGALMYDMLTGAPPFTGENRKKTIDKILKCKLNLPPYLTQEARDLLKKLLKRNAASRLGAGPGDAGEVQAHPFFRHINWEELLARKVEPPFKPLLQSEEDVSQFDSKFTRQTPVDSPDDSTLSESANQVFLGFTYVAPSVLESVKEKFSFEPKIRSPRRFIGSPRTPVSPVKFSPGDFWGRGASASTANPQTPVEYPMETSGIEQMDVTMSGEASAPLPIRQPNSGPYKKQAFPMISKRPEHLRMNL
T3 sequence (O96013 whole entry): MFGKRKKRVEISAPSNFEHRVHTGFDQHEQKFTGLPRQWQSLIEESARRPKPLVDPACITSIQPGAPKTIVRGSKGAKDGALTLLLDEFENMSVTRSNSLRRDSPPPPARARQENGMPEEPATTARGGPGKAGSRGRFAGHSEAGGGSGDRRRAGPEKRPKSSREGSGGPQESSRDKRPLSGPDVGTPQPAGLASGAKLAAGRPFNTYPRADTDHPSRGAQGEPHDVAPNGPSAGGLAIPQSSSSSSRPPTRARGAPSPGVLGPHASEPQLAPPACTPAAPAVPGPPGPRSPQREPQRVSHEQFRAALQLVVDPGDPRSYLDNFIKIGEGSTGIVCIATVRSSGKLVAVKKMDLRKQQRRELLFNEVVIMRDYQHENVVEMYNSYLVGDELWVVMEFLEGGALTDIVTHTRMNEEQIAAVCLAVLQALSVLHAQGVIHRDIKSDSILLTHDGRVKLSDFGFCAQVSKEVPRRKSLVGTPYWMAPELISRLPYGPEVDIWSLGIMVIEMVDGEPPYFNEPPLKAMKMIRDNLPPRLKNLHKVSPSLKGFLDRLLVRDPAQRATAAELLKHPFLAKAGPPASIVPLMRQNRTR
T6 sequence (Q15418 whole entry): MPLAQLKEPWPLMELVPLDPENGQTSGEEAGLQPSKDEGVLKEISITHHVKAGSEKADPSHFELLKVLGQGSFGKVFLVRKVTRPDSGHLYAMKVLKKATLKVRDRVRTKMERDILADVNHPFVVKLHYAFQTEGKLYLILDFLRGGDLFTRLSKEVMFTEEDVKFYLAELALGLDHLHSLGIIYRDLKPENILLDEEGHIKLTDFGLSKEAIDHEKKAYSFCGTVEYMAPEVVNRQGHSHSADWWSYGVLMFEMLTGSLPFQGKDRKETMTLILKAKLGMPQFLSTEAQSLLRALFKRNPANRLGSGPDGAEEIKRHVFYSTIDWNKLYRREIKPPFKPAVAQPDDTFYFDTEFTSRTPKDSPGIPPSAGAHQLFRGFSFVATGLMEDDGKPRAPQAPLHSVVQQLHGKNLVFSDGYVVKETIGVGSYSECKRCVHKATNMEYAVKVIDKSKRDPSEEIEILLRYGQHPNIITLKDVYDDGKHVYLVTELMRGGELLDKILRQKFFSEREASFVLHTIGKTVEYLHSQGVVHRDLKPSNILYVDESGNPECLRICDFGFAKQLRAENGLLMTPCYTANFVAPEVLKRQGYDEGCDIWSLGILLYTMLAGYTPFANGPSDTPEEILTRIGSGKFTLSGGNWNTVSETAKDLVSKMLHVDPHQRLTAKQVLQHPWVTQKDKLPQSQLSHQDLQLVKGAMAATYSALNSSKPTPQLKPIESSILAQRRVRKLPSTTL

In the case of `O=C(Cc1ccccc1)Nc1ccc(F)c(Nc2ccc3c(c2)CCCCC3=O)c1` [Compound 100], the Residual activity in test [1] (1.0E-05 M) is 92 % of control; in test [1] (1.0E-06 M), 102 % of control; in test [2] (1.0E-05 M), 93 % of control; in test [2] (1.0E-06 M), 97 % of control; in test [3] (1.0E-05 M), 92 % of control; in test [3] (1.0E-06 M), 97 % of control. Also, the Residual activity in test [4] (1.0E-05 M) was 74 % of control; in test [4] (1.0E-06 M), 105 % of control; in test [5] (1.0E-05 M) it was 109 % of control; in test [5] (1.0E-06 M) it was 89 % of control; in test [6] (1.0E-05 M) it was 96 % of control; in test [6] (1.0E-06 M) it was 110 % of control. Also, the Residual activity was 97 % of control in test [7] (1.0E-05 M), 90 % of control in test [7] (1.0E-06 M), 97 % of control in test [8] (1.0E-05 M) and 102 % of control in test [8] (1.0E-06 M).
Take `O=C(Nc1ccc(F)c(Nc2ccc3c(c2)CCCCC3=O)c1)c1cccc(F)c1` [Compound 109]: the Residual activity in test [1] (1.0E-05 M) is on record as 91 % of control; in test [1] (1.0E-06 M), 88 % of control; in test [2] (1.0E-05 M), 92 % of control; in test [2] (1.0E-06 M) it was 95 % of control; in test [3] (1.0E-05 M), 82 % of control; in test [3] (1.0E-06 M), 98 % of control. Further, the Residual activity in test [4] (1.0E-05 M) was 92 % of control; in test [4] (1.0E-06 M) it was 101 % of control; in test [5] (1.0E-05 M), 137 % of control; in test [5] (1.0E-06 M) it was 85 % of control; in test [6] (1.0E-05 M) it was 95 % of control; in test [6] (1.0E-06 M), 96 % of control. The Residual activity in test [7] (1.0E-05 M) is listed as 108 % of control; in test [7] (1.0E-06 M), 104 % of control; in test [8] (1.0E-05 M), 89 % of control; in test [8] (1.0E-06 M) it was 97 % of control.
